Assay results: ChEMBL document CHEMBL1800064, “Biaryl ethers as potent allosteric inhibitors of reverse transcriptase and its key mutant viruses: aryl substituted pyrazole as a surrogate for the pyrazolopyridine motif” (Bioorg Med Chem Lett, 2010)
pIC50, pKi: −log10 of the molar value.

What was measured:
[1] = test system: Human immunodeficiency virus 1; test: Antiviral activity against HIV1 isolate NL4-3 harboring reverse transcriptase G190A mutant assessed as inhibition of viral replication by phenoscreen assay in presence of 40% normal human serum; format: functional, organism-based; conditions: Human immunodeficiency virus 1, isolate NL4-3
[2] = test system: Human immunodeficiency virus 1; test: Antiviral activity against HIV1 isolate NL4-3 harboring reverse transcriptase G190S mutant assessed as inhibition of viral replication by phenoscreen assay in presence of 40% normal human serum; format: functional, organism-based; conditions: Human immunodeficiency virus 1, isolate NL4-3
[3] = test system: Human immunodeficiency virus 1; test: Antiviral activity against HIV1 isolate NL4-3 harboring reverse transcriptase K103N/V179E double mutant assessed as inhibition of viral replication by phenoscreen assay in presence of 40% normal human serum; format: functional, organism-based; conditions: Human immunodeficiency virus 1, isolate NL4-3
[4] = test system: Human immunodeficiency virus 1; test: Antiviral activity against HIV1 isolate NL4-3 harboring reverse transcriptase K103N/Y181C double mutant assessed as inhibition of viral replication by phenoscreen assay in presence of 40% normal human serum; format: functional, organism-based; conditions: Human immunodeficiency virus 1, isolate NL4-3
[5] = test system: Human immunodeficiency virus 1; test: Antiviral activity against HIV1 isolate NL4-3 harboring reverse transcriptase K103N/G190A double mutant assessed as inhibition of viral replication by phenoscreen assay in presence of 40% normal human serum; format: functional, organism-based; conditions: Human immunodeficiency virus 1, isolate NL4-3
[6] = test system: Human immunodeficiency virus 1; test: Antiviral activity against HIV1 isolate NL4-3 harboring reverse transcriptase Y181C/G190A double mutant assessed as inhibition of viral replication by phenoscreen assay in presence of 40% normal human serum; format: functional, organism-based; conditions: Human immunodeficiency virus 1, isolate NL4-3
[7] = test system: Human immunodeficiency virus 1; test: Antiviral activity against HIV1 isolate NL4-3 harboring reverse transcriptase K103N/P225H double mutant assessed as inhibition of viral replication by phenoscreen assay in presence of 40% normal human serum; format: functional, organism-based; conditions: Human immunodeficiency virus 1, isolate NL4-3
[8] = test system: Human immunodeficiency virus 1; test: Antiviral activity against HIV1 isolate NL4-3 harboring reverse transcriptase K101E/G190A double mutant assessed as inhibition of viral replication by phenoscreen assay in presence of 40% normal human serum; format: functional, organism-based; conditions: Human immunodeficiency virus 1, isolate NL4-3
[9] = test system: Human immunodeficiency virus 1; test: Antiviral activity against HIV1 isolate NL4-3 harboring reverse transcriptase K101E/Y181C/G190A mutant assessed as inhibition of viral replication by phenoscreen assay in presence of 40% normal human serum; format: functional, organism-based; conditions: Human immunodeficiency virus 1, isolate NL4-3
[10] = test system: Human immunodeficiency virus 1; test: Antiviral activity against HIV1 isolate NL4-3 harboring reverse transcriptase K103N/Y181C/G190A mutant assessed as inhibition of viral replication by phenoscreen assay in presence of 40% normal human serum; format: functional, organism-based; conditions: Human immunodeficiency virus 1, isolate NL4-3
[11] = test system: Human immunodeficiency virus 1; test: Antiviral activity against HIV1 isolate NL4-3 harboring reverse transcriptase V106A/G190A/F227L mutant assessed as inhibition of viral replication by phenoscreen assay in presence of 40% normal human serum; format: functional, organism-based; conditions: Human immunodeficiency virus 1, isolate NL4-3
[12] = test system: Human immunodeficiency virus 1; test: Ratio IC50 for HIV1 isolate NL4-3 harboring reverse transcriptase L100I mutant to IC50 for HIV1 isolate NL4-3 harboring wild type reverse transcriptase by phenoscreen assay in presence of 40% normal human serum; format: functional
[13] = test system: Human immunodeficiency virus 1; test: Ratio IC50 for HIV1 isolate NL4-3 harboring reverse transcriptase K103N mutant to IC50 for HIV1 isolate NL4-3 harboring wild type reverse transcriptase by phenoscreen assay in presence of 40% normal human serum; format: functional
[14] = test system: Human immunodeficiency virus 1; test: Ratio IC50 for HIV1 isolate NL4-3 harboring reverse transcriptase Y181C mutant to IC50 for HIV1 isolate NL4-3 harboring wild type reverse transcriptase by phenoscreen assay in presence of 40% normal human serum; format: functional
[15] = test system: Human immunodeficiency virus 1; test: Ratio IC50 for HIV1 isolate NL4-3 harboring reverse transcriptase Y188L mutant to IC50 for HIV1 isolate NL4-3 harboring wild type reverse transcriptase by phenoscreen assay in presence of 40% normal human serum; format: functional
[16] = test system: Human immunodeficiency virus 1; test: Ratio IC50 for HIV1 isolate NL4-3 harboring reverse transcriptase G190A mutant to IC50 for HIV1 isolate NL4-3 harboring wild type reverse transcriptase by phenoscreen assay in presence of 40% normal human serum; format: functional
[17] = test system: Human immunodeficiency virus 1; test: Ratio IC50 for HIV1 isolate NL4-3 harboring reverse transcriptase G190S mutant to IC50 for HIV1 isolate NL4-3 harboring wild type reverse transcriptase by phenoscreen assay in presence of 40% normal human serum; format: functional
[18] = test system: Human immunodeficiency virus 1; test: Ratio IC50 for HIV1 isolate NL4-3 harboring reverse transcriptase K103N/V179E double mutant to IC50 for HIV1 isolate NL4-3 harboring wild type reverse transcriptase by phenoscreen assay in presence of 40% normal human serum; format: functional
[19] = test system: Human immunodeficiency virus 1; test: Ratio IC50 for HIV1 isolate NL4-3 harboring reverse transcriptase K103N/Y181C double mutant to IC50 for HIV1 isolate NL4-3 harboring wild type reverse transcriptase by phenoscreen assay in presence of 40% normal human serum; format: functional
[20] = test system: Human immunodeficiency virus 1; test: Ratio IC50 for HIV1 isolate NL4-3 harboring reverse transcriptase K103N/G190A double mutant to IC50 for wild type HIV1 isolate NL4-3 harboring reverse transcriptase by phenoscreen assay in presence of 40% normal human serum; format: functional
[21] = test system: Human immunodeficiency virus 1; test: Ratio IC50 for HIV1 isolate NL4-3 harboring reverse transcriptase Y181C/G190A double mutant to IC50 for HIV1 isolate NL4-3 harboring wild type reverse transcriptase by phenoscreen assay in presence of 40% normal human serum; format: functional
[22] = test system: Human immunodeficiency virus 1; test: Ratio IC50 for HIV1 isolate NL4-3 harboring reverse transcriptase K103N/P225H double mutant to IC50 for HIV1 isolate NL4-3 harboring wild type reverse transcriptase by phenoscreen assay in presence of 40% normal human serum; format: functional
[23] = test system: Human immunodeficiency virus 1; test: Ratio IC50 for HIV1 isolate NL4-3 harboring reverse transcriptase K101E/G190A double mutant to IC50 for HIV1 isolate NL4-3 harboring wild type reverse transcriptase by phenoscreen assay in presence of 40% normal human serum; format: functional
[24] = test system: Human immunodeficiency virus 1; test: Ratio IC50 for HIV1 isolate NL4-3 harboring reverse transcriptase K101E/Y181C/G190A mutant to IC50 for HIV1 isolate NL4-3 harboring wild type reverse transcriptase by phenoscreen assay in presence of 40% normal human serum; format: functional
[25] = test system: Human immunodeficiency virus 1; test: Ratio IC50 for HIV1 isolate NL4-3 harboring reverse transcriptase K103N/Y181C/G190A mutant to IC50 for HIV1 isolate NL4-3 harboring wild type reverse transcriptase by phenoscreen assay in presence of 40% normal human serum; format: functional
[26] = test system: Human immunodeficiency virus 1; test: Ratio IC50 for HIV1 isolate NL4-3 harboring reverse transcriptase V106A/G190A/F227L mutant to IC50 for HIV1 isolate NL4-3 harboring wild type reverse transcriptase by phenoscreen assay in presence of 40% normal human serum; format: functional
[27] = test system: Human immunodeficiency virus 1; test: Antiviral activity against HIV1 R8 harboring wild type reverse transcriptase infected in human MT4 cells assessed as inhibition of viral spread in presence of 10% fetal bovine serum; format: functional; conditions: Human immunodeficiency virus 1, R8, MT4; read-out: CIC95
[28] = target: Human immunodeficiency virus type 1 reverse transcriptase (Human immunodeficiency virus 1, UniProt Q72547); test: Inhibition of wild type HIV1 reverse transcriptase by SPA assay
[29] = target: Human immunodeficiency virus type 1 reverse transcriptase (Human immunodeficiency virus 1, UniProt Q72547, K103N); test: Inhibition of HIV1 reverse transcriptase K103N mutant by SPA assay
[30] = target: Human immunodeficiency virus type 1 reverse transcriptase (Human immunodeficiency virus 1, UniProt Q72547, Y181C); test: Inhibition of HIV1 reverse transcriptase Y181C mutant by SPA assay
[31] = test system: Human immunodeficiency virus 1; test: Antiviral activity against HIV1 isolate NL4-3 harboring wild type reverse transcriptase assessed as inhibition of viral replication by phenoscreen assay in presence of 40% normal human serum; format: functional, organism-based; conditions: Human immunodeficiency virus 1, isolate NL4-3
[32] = test system: Human immunodeficiency virus 1; test: Antiviral activity against HIV1 R8 harboring reverse transcriptase infected in human MT4 cells assessed as inhibition of viral spread in presence of 50% normal human serum; format: functional; conditions: Human immunodeficiency virus 1, R8, MT4; read-out: CIC95
[33] = test system: Human immunodeficiency virus 1; test: Antiviral activity against HIV1 R8 harboring reverse transcriptase K103N mutant infected in human MT4 cells assessed as inhibition of viral spread in presence of 10% fetal bovine serum; format: functional; conditions: Human immunodeficiency virus 1, R8, MT4; read-out: CIC95
[34] = test system: Human immunodeficiency virus 1; test: Antiviral activity against HIV1 R8 harboring reverse transcriptase Y181C mutant infected in human MT4 cells assessed as inhibition of viral spread in presence of 10% fetal bovine serum; format: functional; conditions: Human immunodeficiency virus 1, R8, MT4; read-out: CIC95
[35] = test system: Human immunodeficiency virus 1; test: Antiviral activity against HIV1 isolate NL4-3 harboring reverse transcriptase L100I mutant assessed as inhibition of viral replication by phenoscreen assay in presence of 40% normal human serum; format: functional, organism-based; conditions: Human immunodeficiency virus 1, isolate NL4-3
[36] = test system: Human immunodeficiency virus 1; test: Antiviral activity against HIV1 isolate NL4-3 harboring reverse transcriptase K103N mutant assessed as inhibition of viral replication by phenoscreen assay in presence of 40% normal human serum; format: functional, organism-based; conditions: Human immunodeficiency virus 1, isolate NL4-3
[37] = test system: Human immunodeficiency virus 1; test: Antiviral activity against HIV1 isolate NL4-3 harboring reverse transcriptase Y181C mutant assessed as inhibition of viral replication by phenoscreen assay in presence of 40% normal human serum; format: functional, organism-based; conditions: Human immunodeficiency virus 1, isolate NL4-3
[38] = test system: Human immunodeficiency virus 1; test: Antiviral activity against HIV1 isolate NL4-3 harboring reverse transcriptase Y188L mutant assessed as inhibition of viral replication by phenoscreen assay in presence of 40% normal human serum; format: functional, organism-based; conditions: Human immunodeficiency virus 1, isolate NL4-3

**Q.** How did the pIC50 [1] turn out when N#Cc1cc(Cl)cc(Oc2cc(OCc3cc(-c4ccncc4)[nH]n3)ccc2Cl)c1 was run?
**A.** The pIC50 was 7.65.

**Q.** What about the pIC50 [2] of the same molecule?
**A.** Its pIC50 is 6.79.

**Q.** What about the pIC50 [3] of the same molecule?
**A.** Its pIC50 is 7.04.

**Q.** What about the pIC50 [4] of the same molecule?
**A.** Its pIC50 is under 6.00.

**Q.** What about the pIC50 [5] of the same molecule?
**A.** Its pIC50 is 6.92.

**Q.** And the pIC50 [6]?
**A.** Its pIC50 is 6.88.

**Q.** What about the pIC50 [7] of the same molecule?
**A.** Its pIC50 is 7.49.

**Q.** What about the pIC50 [8] of the same molecule?
**A.** The pIC50 was 6.93.

**Q.** What about the pIC50 [9] of the same molecule?
**A.** The pIC50 was 6.48.

**Q.** What about the pIC50 [10] of the same molecule?
**A.** Its pIC50 is under 6.00.

**Q.** And the pIC50 [11]?
**A.** Its pIC50 is under 6.00.

**Q.** And the “Ratio IC50” value [12]?
**A.** Its value is 4.9.

**Q.** What about the “Ratio IC50” value [13] of the same molecule?
**A.** The value was 4.4.

**Q.** What about the “Ratio IC50” value [14] of the same molecule?
**A.** The value was 8.

**Q.** And the “Ratio IC50” value [15]?
**A.** The value was over 222.

**Q.** And the “Ratio IC50” value [16]?
**A.** Its value is 5.

**Q.** What about the “Ratio IC50” value [17] of the same molecule?
**A.** The value was 35.7.

**Q.** And the “Ratio IC50” value [18]?
**A.** Its value is 20.

**Q.** What about the “Ratio IC50” value [19] of the same molecule?
**A.** Its value is over 222.

**Q.** And the “Ratio IC50” value [20]?
**A.** The value was 26.6.

**Q.** What about the “Ratio IC50” value [21] of the same molecule?
**A.** Its value is 29.1.

**Q.** What about the “Ratio IC50” value [22] of the same molecule?
**A.** Its value is 7.2.

**Q.** What about the “Ratio IC50” value [23] of the same molecule?
**A.** The value was 26.2.

**Q.** And the “Ratio IC50” value [24]?
**A.** Its value is 73.7.

**Q.** What about the “Ratio IC50” value [25] of the same molecule?
**A.** Its value is over 222.

**Q.** What about the “Ratio IC50” value [26] of the same molecule?
**A.** Its value is over 222.

**Q.** What about the IC95 [27] of the same molecule?
**A.** Its IC95 is 25 nM.

**Q.** What about the pKi [28] of the same molecule?
**A.** Its pKi is 9.15.

**Q.** And the pKi [29]?
**A.** The pKi was 8.38.

**Q.** And the pKi [30]?
**A.** Its pKi is 8.34.

**Q.** And the pIC50 [31]?
**A.** Its pIC50 is 8.35.

**Q.** And the IC95 [32]?
**A.** Its IC95 is 102 nM.

**Q.** And the IC95 [33]?
**A.** The IC95 was 102 nM.

**Q.** And the IC95 [34]?
**A.** The IC95 was 278 nM.

**Q.** And the pIC50 [35]?
**A.** Its pIC50 is 7.66.

**Q.** What about the pIC50 [36] of the same molecule?
**A.** The pIC50 was 7.71.

**Q.** And the pIC50 [37]?
**A.** Its pIC50 is 7.44.

**Q.** And the pIC50 [38]?
**A.** The pIC50 was under 6.00.
